Source: patent publication US12268227B2, “Production of flavor concentrates by osmosis” (SYMRISE AG, priority 2017, dated 2025)
Where two headings read alike, the source gives them in different places.

Columns and labels:
[1] = Odour threshold concentration in water
Description: The OAV value is defined as a measure of the significance of a specific component in the odour of a sample, for example, a foodstuff. The OAV value is calculated by dividing the concentration of a specific substance in the food (mg/kg) by the concentration threshold value of this substance in the food (mg/kg). If the OAV>1, the concentration of the substance exceeds the odour threshold concentration and the substance then makes a sensorial contribution to the overall profile.
The sensory recovery coefficient (SWF) of an aroma substance is composed of the log P of the aroma substance and the odour threshold concentration of the aroma substance (mg/kg in water) and is defined as follows: […]

[2] = log P (n-octanol/water partition coefficient) of aroma substances; assay type: physicochemical
From the text: [formula] • wherein: • C (n-octanol) is the concentration of the aroma substance in the n-octanol phase; and • C (water) is the concentration of the aroma substance in the water phase. The log K(n-octanol/water) is a dimensionless partition coefficient which indicates the ratio of the concentration of the aroma substance in a two-phase system of n-octanol and water. It is thus a model measure of the polarity or water/fat solubility of the aroma substance. Log P is a common physical parameter and is positive for lipophilic aroma substances and negative for hydrophilic aroma substances. The W parameter is therefore defined as follows: W=log10(SWF)

Row | Structure (SMILES) | Threshold ([1]; odour threshold concentration) | logP ([2]; read-out: logP) | logP [2] | Threshold [1]
1 | CCCC(=O)O [butyric acid] | 1000 µg/kg in water | – | – | –
2 | CCCCCC(=O)O [hexanoic acid] | 3940 µg/kg in water | 1.81 | – | –
3 | CCCCCCO [hexanol] | 50 µg/kg in water | – | – | –
4 | CCC=O [propanal] | 170 µg/kg in water | 0.484 | – | –
5 | CCC(=O)C(C)=O [2,3-pentanedione] | 5 µg/kg in water | 0.159 | – | –
6 | CCOC(C)=O [ethyl acetate] | 3120 µg/kg in water | – | – | –
7 | C=CC(C)(O)CCC=C(C)C (stereo not drawn) [linalool] | 103 µg/kg in water | 2.74 | – | –
8 | CCCC(=O)OCC [ethyl butanoate] | 1 µg/kg in water | 1.49 | – | –
9 | CCC(C)C=O (stereo not drawn) [2-methylbutyraldehyde] | 0.9 µg/kg in water | 1.4 | – | –
10 | CO [methanol] | 369828 mg/kg in water | -0.358 | – | –
11 | CCCCC1CCC(=O)O1 (stereo not drawn) [gamma-octalactone] | 24 µg/kg in water | – | 2.0901 | –
12 | CC=O [acetaldehyde] | – | -0.182 | – | 63 µg/kg in water
13 | CCCCCC=O [hexanal] | 16 µg/kg in water | 1.85 | – | –
14 | CC/C=C\CCO [cis-3-hexenol] | – | 1.44 | – | –
15 | CC(=O)C(C)=O [2,3-butanedione] | 54 µg/kg in water | -0.508 | – | –
16 | CC(=O)O [acetic acid] | 180000 mg/kg in water | – | – | –
17 | CCCCCC(=O)OCC [ethyl hexanoate] | 5 µg/kg in water | 2.41 | – | –
18 | CC(C)=CCC/C(C)=C/C=O [geranial] | 320 µg/kg in water | 3.19 | – | –
19 | CCCO [propanol] | – | – | – | 5700 µg/kg in water
20 | CCO [ethanol] | 52000 mg/kg in water | – | – | –
